Patent publication EP4308247B1, “USE OF MONO[…] TREATING SIGNS OF SKIN AGING” (Unilever IP Holdings B.V., priority 2021, dated 2022)

Test system: primary adult human dermal fibroblasts (HDFs)
Assay: High-throughput compound screen for senolytic activity (cell viability by Hoechst 33342 / SYTOX Green imaging) in early proliferating (EP) and deeply senescent (DS) fibroblasts
Type: cell-based
Design: key to hit classification based on EP and DS cell viability: senolytic: EP cell viability above the 89% EP threshold and DS cell viability below the 87% DS threshold for at least one concentration of the three serial concentrations; prolifolytic: decreased EP cell viability below the 89% EP threshold but did not decrease DS cell viability below 87%; cytotoxic: decreased both EP and DS cell viability below their respective thresholds; non-toxic: maintained both EP and DS viability above their respective thresholds
Source text: A high-throughput compound screen of 1240 test compounds including inter alia monostearin (IUPAC: 1,3-dihydroxypropan-2-yl octadecanoate 2,3-dihydroxypropyl octadecanoate) was optimised in primary adult human dermal fibroblasts (HDFs). For this, a model of replicative senescence in HDFs was established. In brief, early proliferating (EP) fibroblasts at passage 11 were serially passaged until they reached replicative senescence at passage 29.
Actinomycin D, a drug widely reported to induce apoptosis in multiple cell types, was optimised for use as a positive 'senolytic control' for the high-throughput compound screen in EP (0.02µM) and DS (0.2µM) HDFs.
In order to perform the high-throughput screen of the test compounds a thorough validation process of the assay was undertaken prior to experimental screening. For both EP and DS HDFs, the following steps were optimised: optimisation of cell seeding densities in 384-well plate format; validation and optimisation of Actinomycin D positive and DMSO-vehicle negative controls; optimisation of high-throughput image acquisition and high content analysis of Hoechst 33342 (ThermoFisher, UK) in combination with SYTOX Green (ThermoFisher, UK) using the INCell 2200 microscope (GE, UK) for cell death phenotypic read-outs; optimisation of liquid handling system protocols; plate uniformity assessments; and a "dry run" of all components in the assay. […]

CCCCCCCCCCCCCCCCCC(=O)OCC(O)CO (centres unmarked) [monostearin, 1,3-dihydroxypropan-2-yl octadecanoate 2,3-dihydroxypropyl octadecanoate]
cytotoxicity for senescent cells, compared to growing cells (DS versus EP HDFs, conclusion drawn from the screen): preferential cytotoxicity for senescent cells
hit classification based on EP and DS cell viability (EP and DS HDFs, three serial concentrations, 48 hours incubation, read-out five days post-compound addition, class met for at least one concentration): senolytic
